Assays:
5-HT1A = molecular target: T1, 5-HT1A (Rattus norvegicus, UniProt P19327); assay: inhibition of tritiated ligand ([3H]8-OH-DPAT) binding to 5-HT1A receptors, rat hippocampal tissue; design: species or system male Charles River CD rats; conditions: for Ki: 25° C., 30 minutes, pH 7.7; for inhibition at 1 µM: at 10^-6 M, read-out: % displacement of specific binding, 5-HT1A
T1 construct: Hippocampal tissue from the brains of male Charles River CD rats; from tissue; host or cells: rat hippocampus (male Charles River CD rats), crude membrane pellet
T1 sequence (P19327 1-422): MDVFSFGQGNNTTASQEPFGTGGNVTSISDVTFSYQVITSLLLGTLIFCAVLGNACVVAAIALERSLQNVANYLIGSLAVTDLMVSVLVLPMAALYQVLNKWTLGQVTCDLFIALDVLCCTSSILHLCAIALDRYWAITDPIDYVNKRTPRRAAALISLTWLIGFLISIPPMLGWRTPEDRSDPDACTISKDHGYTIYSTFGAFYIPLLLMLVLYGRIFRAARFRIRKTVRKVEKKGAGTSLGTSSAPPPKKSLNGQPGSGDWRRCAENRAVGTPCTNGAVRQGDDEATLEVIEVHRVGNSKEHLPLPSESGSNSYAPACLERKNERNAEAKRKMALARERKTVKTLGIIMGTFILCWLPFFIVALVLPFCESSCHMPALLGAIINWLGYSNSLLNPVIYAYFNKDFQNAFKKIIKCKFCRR
Description: Hippocampal tissue from the brains of male Charles River CD rats weighing between 150-250 g were homogenised in ice-cold 50 mM Tris-HCl buffer (pH 7.7) when measured at 25° C., 1:40 w/v) and centrifuged at 30,000 g at 4° C. for 10 minutes. The pellet was rehomogenised in the same buffer, incubated at 37° C. for 10 minutes and centrifuged at 30,000 g at 4° C. for 10 minutes. The final pellet was resuspended in 50 mM Tris-HCl buffer (pH 7.7) containing 4 mM CaCl2, 0.1% L-ascorbic acid and 10 μM pargyline hydrochloride (equivalent to 6.25 mg wet weight of tissue/ml) and used immediately in the binding assay. Aliquots (400 μl; equivalent to 2.5 mg wet weight of tissue/tube) of this suspension were added to tubes containing the ligand (50 μl; 2 nM) and distilled water (50 μl; total binding) or 5-HT (50 μl; 10 μM; non-specific binding) or test compound (50 μl; at a single concentration of 10^-6 M or at 10 concentrations ranging from 10^-11 -10^-3 M). The ligand was [^3 H]8-hydroxy-2-(dipropylamino)tetralin ([^3 H]8-OH-DPAT) and the mixture was incubated at 25° C. for 30 minutes before the incubation was terminated by rapid filtration.
The filters were washed with ice-cold Tris-HCl buffer and dried. The filters were punched out into vials, scintillation fluid added and radioactivity determined by liquid scintillation counting. The percentage displacement of specific binding of the tritiated ligand was calculated for the single concentration (10^-6 M) of test compound. Displacement curves were then produced for those compounds which displaced ≥50% of specific binding of the tritiated ligand at 10^-6 M using a range of concentrations of the compound. The concentration which gave 50% inhibition of specific binding (IC50) was obtained from the curve. The inhibition coefficient Ki was then calculated using the formula [formula] in which [ligand] is the concentration of the tritiated ligand used and KD Is the equilibrium dissociation constant for the ligand.

[1] = molecular target: T2, D2-like dopamine receptors (Rattus norvegicus, UniProt P61169); assay: inhibition of tritiated (S)-sulpiride binding to D2-like dopamine receptors, rat striatal tissue; design: species or system male Charles River CD rats; conditions: for Ki: 4° C., 40 minutes, pH 7.7; for inhibition at 1 µM: at 10^-6 M, read-out: % displacement of specific binding, D2-like
T2 construct: Striatal tissue from the brains of male Charles River CD rats; from tissue; host or cells: rat striatum (male Charles River CD rats), crude membrane pellet
Description: Striatal tissue from the brains of male Charles River CD rats weighing between 140-250 g were homogenised in ice-cold 50 mM Tris-HCl buffer (pH 7.7 when measured at 25° C.) and centrifuged at 40,000 g for 10 minutes. The pellet was resuspended in Tris salts buffer (50 mM Tris-HCl buffer containing 120 mM NaCl, 5 mM KCl, 2 mM CaCl2 and 1 mM MgCl2 with the addition of 6 mM ascorbic acid; pH 7.7 when measured at 25° C.), and again centrifuged at 40,000 g for 10 minutes. The final pellet was stored at -80° C. Before each test the pellet was resuspended in Tris salts buffer (equivalent to 2 mg wet weight of tissue/ml). Aliquots (720 μl; equivalent to 1.44 mg wet weight of tissue/tube) of this suspension were then added to tubes containing the ligand (40 μl; 1 nM) and Tris salts buffer (40 μl; total binding) or spiroperidol (40 μl; 10 nM; non-specific binding) or test compound (40 μl; at a single concentration of 10^-6 M or at 6 concentrations ranging from 10^-11 -10^-4 M). The ligand was tritiated (S)-sulpiride and the mixture was incubated at 4° C. for 40 minutes before the incubation was terminated by rapid filtration.
The filters were washed with ice-cold Tris-HCl buffer and dried. The filters were punched out in to vials, scintillation fluid added and were left for about 20 hours before being counted by scintillation spectrophotometry. The percentage displacement of specific binding of the tritiated ligand was calculated for the single concentration (10^-6 M) of test compound. Displacement curves were then produced over a range of concentrations for those compounds which displaced ≥50% of specific binding of the tritiated ligand at 10^-6 M. The concentration which gave a 50% inhibition of specific binding (IC50) was obtained from the curve. The inhibition coefficient Ki was then calculated using the formula [formula] in which [ligand] is the concentration of the tritiated ligand used and KD is the equilibrium dissociation constant for the ligand.

T2 sequence (P61169 whole entry): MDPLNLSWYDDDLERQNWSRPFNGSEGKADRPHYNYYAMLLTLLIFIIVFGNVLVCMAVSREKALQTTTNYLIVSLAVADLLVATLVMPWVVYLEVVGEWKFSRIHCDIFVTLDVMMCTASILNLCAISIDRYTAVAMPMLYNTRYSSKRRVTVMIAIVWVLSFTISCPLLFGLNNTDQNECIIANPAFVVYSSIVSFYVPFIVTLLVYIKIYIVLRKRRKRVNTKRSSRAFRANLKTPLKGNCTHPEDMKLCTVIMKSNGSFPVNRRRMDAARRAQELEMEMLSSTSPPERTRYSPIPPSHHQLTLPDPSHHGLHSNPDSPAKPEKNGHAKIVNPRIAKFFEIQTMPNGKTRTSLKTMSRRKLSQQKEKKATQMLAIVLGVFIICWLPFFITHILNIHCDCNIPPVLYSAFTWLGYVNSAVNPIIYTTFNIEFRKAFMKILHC

Ki (5-HT1A) [nM] | Ki [1] [nM] | inhibition at 1 µM (5-HT1A) [%] | inhibition at 1 µM [1] [%] | Structure (SMILES)
45 | 37.2 | – | – | CC(=O)Nc1ccc(S(=O)(=O)NCC2CCN(C[C@H]3COc4ccc(Cl)cc4O3)CC2)cc1 [Example 8, (S)-(-)-4-acetamido-N-{[1-(7-chloro-1,4-benzodioxan-2-ylmethyl)-4-piperidyl]methyl}benzenesulphonamide]
69 | 157 | – | – | O=S(=O)(NCC1CCN(C[C@H]2COc3ccc(Cl)cc3O2)CC1)c1ccc(Cl)cc1 [Example 11, (S)-(-)-N-{[1-(7-chloro-1,4-benzodioxan-2-ylmethyl)-4-piperidyl]methyl}-4-chlorobenzene-sulphonamide]
– | 301 | 91 | – | Cc1ccc(S(=O)(=O)NCC2CCN(C[C@H]3COc4ccc(Cl)cc4O3)CC2)cc1 [Example 33, (S)-N-{[1-(7-Chloro-1,4-benzodioxan-2-ylmethyl)-4-piperidyl]methyl}-4-methylbenzenesulphonamide]
– | 241 | 65 | – | O=S(=O)(NCC1CCN(C[C@H]2COc3ccc(Cl)cc3O2)CC1)c1ccc2ccccc2c1 [Example 30, (S)-N-{[1-(7-Chloro-1,4-benzodioxan-2-ylmethyl)-4-piperidyl]methyl}-2-naphthalenesulphonamide]
– | – | 93 | 107 | O=S(=O)(NCC1CCN(C[C@H]2COc3ccc(Cl)cc3O2)CC1)c1ccccc1F [Example 40, (S)-(-)-N-{[1-(7-Chloro-1,4-benzodioxan-2-ylmethyl)-4-piperidyl]methyl}-2-fluorobenzenesulphonamide]
– | 357 | 67 | – | O=S(=O)(NCC1CCN(C[C@H]2COc3ccc(Cl)cc3O2)CC1)c1ccc(OC(F)(F)F)cc1 [Example 29, (S)-N-{[1-(7-Chloro-1,4-benzodioxan-2-ylmethyl)-4-piperidyl]methyl}-4-trifluoromethoxybenzenesulphonamide]
– | 330 | 95 | – | O=S(=O)(NCC1CCN(C[C@H]2COc3ccc(Cl)cc3O2)CC1)c1ccc(F)c(F)c1F [Example 38, (S)-N-{[1-(7-Chloro-1,4-benzodioxan-2-ylmethyl)-4-piperidyl]methyl}-2,3,4-trifluorobenzenesulphonamide]
– | 215 | 60 | – | O=S(=O)(NCC1CCN(C[C@H]2COc3ccc(Cl)cc3O2)CC1)c1cccc2ccccc12 [Example 31, (S)-N-{[1-(7-Chloro-1,4-benzodioxan-2-ylmethyl)-4-piperidyl]methyl}-1-naphthalenesulphonamide]
– | – | 97 | 109 | O=S(=O)(NCC1CCN(C[C@H]2COc3ccc(Br)cc3O2)CC1)c1ccccc1F [Example 45, (S)-(-)-N-{[1-(7-Bromo-1,4-benzodioxan-2-ylmethyl)-4-piperidyl]methyl}-2-fluorobenzenesulphonamide]
– | 351 | 68 | – | COc1ccc(Cl)cc1S(=O)(=O)NCC1CCN(C[C@H]2COc3ccc(Cl)cc3O2)CC1 [Example 27, (S)-5-Chloro-N-{[1-(7-chloro-1,4-benzodioxan-2-ylmethyl)-4-piperidyl]methyl}-2-methoxybenzenesulphonamide]
– | 317 | 59 | – | Cc1c(C)c(C)c(S(=O)(=O)NCC2CCN(C[C@H]3COc4ccc(Cl)cc4O3)CC2)c(C)c1C [Example 22, (S)-N-{[1-(7-Chloro-1,4-benzodioxan-2-ylmethyl)-4-piperidyl]methyl}-2,3,4,5,6-pentamethylbenzenesulphonamide]
– | 487 | 68 | – | O=S(=O)(NCC1CCN(C[C@H]2COc3ccc(Cl)cc3O2)CC1)c1cc(Br)ccc1Br [Example 36, (S)-2,5-Dibromo-N-{[1-(7-Chloro-1,4-benzodioxan-2-ylmethyl)-4-piperidyl]methyl}-benzenesulphonamide]
31.6 | 28 | – | – | O=S(=O)(NCC1CCN(C[C@H]2COc3ccc(Cl)cc3O2)CC1)c1cccnc1 [Example 3, (S)-(-)-N-{[1-(7-chloro-1,4-benzodioxan-2-ylmethyl)-4-piperidyl]methyl}pyridine-3-sulphonamide 0.8 hydrate]
30 | 28.7 | – | – | O=S(=O)(NCC1CCN(C[C@H]2COc3ccc(C(F)(F)F)cc3O2)CC1)c1ccccn1 [Example 12, (S)-(-)-N-J[1-(7-trifluoromethyl-1,4-benzodioxan-2-ylmethyl)-4-piperidyl]methyl,pyridine-2-sulphonamide]
1.5 | 73 | – | – | O=S(=O)(NCC1CCN(C[C@H]2COc3ccc(Cl)cc3O2)CC1)c1cccc(Cl)c1Cl [Example 43, (S)-(-)-2,3-Dichloro-N-{[1-(7-chloro-1,4-benzodioxan-2-ylmethyl)-4-piperidyl]methyl}benzenesulphonamide]
35 | 37.8 | – | – | O=S(=O)(NCC1CCN(C[C@H]2COc3ccc(Cl)cc3O2)CC1)c1ccc(F)cc1F [Example 7, (S)-(-)-N-{[1-(7-chloro-1,4-benzodioxan-2-ylmethyl)-4-piperidyl]methyl}-2,4-difluorobenzenesulphonamide]
– | – | 88 | 103 | O=S(=O)(NCC1CCN(C[C@H]2COc3ccc(Br)cc3O2)CC1)c1ccc(F)c(Cl)c1 [Example 48, (S)-(-)-3-Chloro-N-{[1-(7-bromo-1,4-benzodioxan-2-ylmethyl)-4-piperidyl]methyl}-4-fluorobenzenesulphonamide]
– | 328 | 81 | – | Cc1ccc(F)cc1S(=O)(=O)NCC1CCN(C[C@H]2COc3ccc(Cl)cc3O2)CC1 [Example 35, (S)-N-{[1-(7-Chloro-1,4-benzodioxan-2-ylmethyl)-4-piperidyl]methyl}-5-fluoro-2-methylbenzenesulphonamide]
– | 85 | 87 | – | O=[N+]([O-])c1ccccc1S(=O)(=O)NCC1CCN(C[C@H]2COc3ccc(Cl)cc3O2)CC1 [Example 37, (S)-N-{[1-(7-Chloro-1,4-benzodioxan-2-ylmethyl)-4-piperidyl]methyl}-2-nitro-benzenesulphonamide]
– | 88 | 87 | – | O=S(=O)(NCC1CCN(C[C@H]2COc3ccc(Cl)cc3O2)CC1)c1ccccc1 [Example 34, (S)-N-{[1-(7-Chloro-1,4-benzodioxan-2-ylmethyl)-4-piperidyl]methyl}benzene-sulphonamide]
37 | 69.8 | – | – | O=S(=O)(NCC1CCN(C[C@H]2COc3ccc(Cl)cc3O2)CC1)c1ccc(F)cc1 [Example 5, (S)-(-)-N-{[1-(7-chloro-1,4-benzodioxan-2-ylmethyl)-4-piperidyl]methyl}-4-fluorobenzene-sulphonamide]
